Data set [1] can be described thus: Antiproliferative activity against human HCT116 cells measured after 72 hrs by MTT assay. In kind it is functional. The conditions noted are these: HCT-116, 72 h. For orientation: Tetrazolium assays rely on reduction of a dye to a coloured formazan, in cell work by metabolically active cells.
Data set [2] in a line: Antiproliferative activity against human A2780 cells measured after 72 hrs by MTT assay. Type of data set: functional. The note with it: A2780, 72 h.
A short description of data set [3]: Antiproliferative activity against human DaOY cells measured after 72 hrs by MTT assay. Type of data set: functional.
Data set [4] concerns A2780. Nature of the data set: Induction of apoptosis in human A2780 cells assessed as cleaved PARP level at 300 to 3000 nM measured after 24 hrs by Western blot analysis. In kind it is functional, cell-based. On the technique in general: A western blot detects proteins with antibodies after separation by electrophoresis.
Data set [5] relates to A2780. Put plainly: Induction of apoptosis in human A2780 cells assessed as viable cells at GI50 measured after 24 hrs by Annexin V/propidium iodide staining-based FACS analysis (reference value: 92.6%). In kind it is functional. In general terms: Flow cytometry measures light scatter and fluorescence of single cells or particles in a stream.
Data set [6] is described as follows: Antiproliferative activity against human 22Rv1 cells measured after 72 hrs by MTT assay. The note with it: 22Rv1, 72 h. In kind it is functional, CWR22R.
Data set [7] is described as follows: Cell cycle arrest in human A2780 cells assessed as accumulation at G1-phase at GI50 measured after 24 hrs by propidium iodide staining-based FACS analysis (reference value: 53%). Type of data set: functional.
Data set [8] in a line: Cell cycle arrest in human A2780 cells assessed as accumulation at Sub-G1 phase at 5 times GI50 measured after 24 hrs by propidium iodide staining-based FACS analysis (reference value: 2%). In kind it is functional.
The subject of data set [9] is A2780. Nature of the data set: Induction of apoptosis in human A2780 cells assessed as early apoptotic cells at 5 times GI50 measured after 24 hrs by Annexin V/propidium iodide staining-based FACS analysis (reference value: 2.81%). Type of data set: functional.
Data set [10] can be described thus: Antiproliferative activity against human COLO205 cells measured after 72 hrs by MTT assay. The note with it: COLO 205, 72 h. Type of data set: functional.
The subject of data set [11] is A2780. Nature of the data set: Induction of apoptosis in human A2780 cells assessed as early apoptotic cells at GI50 measured after 24 hrs by Annexin V/propidium iodide staining-based FACS analysis (reference value: 2.81%). Type of data set: functional.
The nature of data set [12]: Antiproliferative activity against human DU145 cells measured after 72 hrs by MTT assay. In kind it is functional. The conditions noted are these: DU-145, 72 h.
Data set [13] has as its system A2780. Put plainly: Induction of apoptosis in human A2780 cells assessed as necrotic cells at GI50 measured after 24 hrs by Annexin V/propidium iodide staining-based FACS analysis (reference value: 0.34%). Type of data set: functional.
The nature of data set [14]: Cell cycle arrest in human A2780 cells assessed as accumulation at Sub-G1 phase at GI50 measured after 24 hrs by propidium iodide staining-based FACS analysis (reference value: 2%). In kind it is functional.
The test system of data set [15] is A2780. Nature of the data set: Induction of apoptosis in human A2780 cells assessed as late apoptotic cells at 5 times GI50 measured after 24 hrs by Annexin V/propidium iodide staining-based FACS analysis (reference value: 4.23%). In kind it is functional.
Data set [16] in a line: Cell cycle arrest in human A2780 cells assessed as accumulation at G2/M-phase at GI50 measured after 24 hrs by propidium iodide staining-based FACS analysis (reference value: 26%). Type of data set: functional.
For data set [17], the system named is A2780. Nature of the data set: Induction of apoptosis in human A2780 cells assessed as downregulation of Mcl1 level at 300 to 3000 nM measured after 24 hrs by Western blot analysis. Type of data set: functional, cell-based.
Data set [18] in a line: Antiproliferative activity against human LNCAP cells measured after 72 hrs by MTT assay. Type of data set: functional.
Data set [19] can be described thus: Antiproliferative activity against human C4-2B cells measured after 72 hrs by MTT assay. In kind it is functional. The conditions noted are these: LNCaP C4-2B.
A short description of data set [20]: Cell cycle arrest in human A2780 cells assessed as accumulation at G1-phase at 5 times GI50 measured after 24 hrs by propidium iodide staining-based FACS analysis (reference value: 53%). In kind it is functional.
Data set [21] is described as follows: Antiproliferative activity against human MCF7 cells measured after 72 hrs by MTT assay. In kind it is functional. The note with it: MCF7, 72 h.
Data set [22] is described as follows: Cell cycle arrest in human A2780 cells assessed as accumulation at G2/M-phase at 5 times GI50 measured after 24 hrs by propidium iodide staining-based FACS analysis (reference value: 26%). Type of data set: functional.
Data set [23] has as its system A2780. Nature of the data set: Induction of apoptosis in human A2780 cells assessed as necrotic cells at 5 times GI50 measured after 24 hrs by Annexin V/propidium iodide staining-based FACS analysis (reference value: 0.34%). Type of data set: functional.
Data set [24] in a line: Antiproliferative activity against human HT-29 cells measured after 72 hrs by MTT assay. Type of data set: functional. The conditions noted are these: HT-29, 72 h.
Data set [25] is described as follows: Cell cycle arrest in human A2780 cells assessed as accumulation at S-phase at GI50 measured after 24 hrs by propidium iodide staining-based FACS analysis (reference value: 19%). Type of data set: functional.
Data set [26] relates to A2780. Nature of the data set: Induction of apoptosis in human A2780 cells assessed as viable cells at 5 times GI50 measured after 24 hrs by Annexin V/propidium iodide staining-based FACS analysis (reference value: 92.6%). In kind it is functional.
The nature of data set [27]: Antiproliferative activity against human PANC1 cells measured after 72 hrs by MTT assay. Type of data set: functional. The note with it: PANC-1, 72 h.
A short description of data set [28]: Antiproliferative activity against human PC3 cells measured after 72 hrs by MTT assay. In kind it is functional. The note with it: PC-3, 72 h.
For data set [29], the target named is Serine/threonine-protein kinase PLK1 (Homo sapiens) (UniProt P53350). Put plainly: Inhibition of Plk1 in human A2780 cells assessed as reduction in CDC25C phosphorylation at Ser198 residue at 300 to 3000 nM measured after 24 hrs by Western blot analysis. Type of data set: cell-based.
A short description of data set [30]: Antiproliferative activity against human KM12 cells measured after 72 hrs by MTT assay. The note with it: KM12, 72 h. Type of data set: functional.
Data set [31] can be described thus: Cytotoxicity against human WI38 cells assessed as reduction in cell viability measured after 72 hrs by MTT assay. In kind it is toxicity, cell-based, WI-38.
The nature of data set [32]: Cell cycle arrest in human A2780 cells assessed as accumulation at S-phase at 5 times GI50 measured after 24 hrs by propidium iodide staining-based FACS analysis (reference value: 19%). In kind it is functional.
A short description of data set [33]: Cytotoxicity against human MRC5 cells assessed as reduction in cell viability measured after 72 hrs by MTT assay. Type of data set: toxicity, cell-based.
Data set [34] deals with A2780. Put plainly: Induction of apoptosis in human A2780 cells assessed as late apoptotic cells at GI50 measured after 24 hrs by Annexin V/propidium iodide staining-based FACS analysis (reference value: 4.23%). In kind it is functional.
Data set [35] has as its target Serine/threonine-protein kinase PLK1 (Homo sapiens) (UniProt P53350). The note with it: A2780, 200 to 1000 nM.
Description: Inhibition of Plk1 in human A2780 cells assessed as reduction in CDC25C phosphorylation at Ser198 residue at 200 to 1000 nM measured after 24 hrs by Western blot analysis
For data set [36], the system named is A2780. Nature of the data set: Induction of apoptosis in human A2780 cells assessed as cleaved PARP level at 200 to 1000 nM measured after 24 hrs by Western blot analysis. Type of data set: functional, cell-based.
Data set [37] concerns A2780. Put plainly: Induction of apoptosis in human A2780 cells assessed as downregulation of Mcl1 level at 200 to 1000 nM measured after 24 hrs by Western blot analysis. Type of data set: functional, cell-based.

Calls of active or inactive are those of the source. The rule behind the calls is not given here. A value given as a limit tells only on which side of the number the result lay.

Chain of Serine/threonine-protein kinase PLK1 (Homo sapiens) (P53350 whole entry): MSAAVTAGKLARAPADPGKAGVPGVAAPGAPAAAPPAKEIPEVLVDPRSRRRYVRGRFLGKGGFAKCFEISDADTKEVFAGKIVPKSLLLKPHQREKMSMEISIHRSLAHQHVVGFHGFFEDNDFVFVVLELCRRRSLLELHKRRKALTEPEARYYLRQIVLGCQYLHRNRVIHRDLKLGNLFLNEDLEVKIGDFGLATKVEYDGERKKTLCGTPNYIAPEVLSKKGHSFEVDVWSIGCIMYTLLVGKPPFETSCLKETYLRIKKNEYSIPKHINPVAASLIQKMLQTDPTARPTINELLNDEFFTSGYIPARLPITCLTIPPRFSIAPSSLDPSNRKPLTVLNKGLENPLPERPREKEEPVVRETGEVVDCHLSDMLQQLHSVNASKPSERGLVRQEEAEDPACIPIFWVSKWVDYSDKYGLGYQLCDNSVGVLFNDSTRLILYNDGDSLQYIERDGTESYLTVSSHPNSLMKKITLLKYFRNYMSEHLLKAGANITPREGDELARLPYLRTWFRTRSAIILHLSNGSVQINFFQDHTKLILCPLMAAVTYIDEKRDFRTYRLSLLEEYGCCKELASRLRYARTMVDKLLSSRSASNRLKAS

`COc1cc(OC)c(/C=C/S(=O)(=O)Cc2cnc(OC)cn2)c(OC)c1`: the figures for the GI50 in data set [1] and in [2] were 950 nM and 490 nM, respectively.

Turning to `COc1cc(OC)c(/C=C/S(=O)(=O)Cc2nc(Cl)ncc2OC)c(OC)c1`, the 50% growth inhibitory concentration (GI50) in [1] and in data set [2] was greater than 10000 nM throughout.

Take `COc1cc(OC)c(/C=C/S(=O)(=O)Cc2cnc(Cl)cn2)c(OC)c1`: the results for the GI50 in data set [1] and in data set [2] were greater than 10000 nM and 4760 nM, respectively.

Take `CCOc1cnc(CS(=O)(=O)/C=C/c2c(OC)cc(OC)cc2OC)cn1`: the values for the GI50 in data set [1] and in data set [2] were 1280 nM and 540 nM, respectively.

As for `CCOc1ccc(NS(=O)(=O)/C=C/c2c(OC)cc(OC)cc2OC)cc1`, the GI50 in data set [3] came out at 340 nM; in data set [1] it was 350 nM; in data set [6], 530 nM; in data set [10] it was 590 nM; in [12] it was 520 nM; in data set [2] it was 310 nM. Moreover, the GI50 in data set [18] worked out at 520 nM; in [19], 450 nM; in [21], 530 nM; in data set [24], 580 nM; in data set [27], 300 nM; in data set [28] it was 600 nM. In addition, the GI50 in [30] stood at 340 nM. Besides, the outcome in data set [4] and in data set [17] was Active. Moreover, the Activity in [5] came to 83.21%; in data set [7] it was 50%; in [8], 19%; in [9] it was 20.22%; in data set [11], 10.03%; in [13] it was 0.78%. For the same compound, the Activity in data set [14] is 5%; in data set [15] it was 7.57%; in data set [16], 29%; in [20] it was 21%; in data set [22] it was 44%; in data set [23], 1.17%. The Activity worked out at 15% in data set [25], 70.89% in data set [26], 16% in [32] and 5.92% in data set [34]. Besides, in data set [29], the inhibition entry is “Active”. The GI50 at 72 h in [31] and in data set [33] was greater than 10000 nM in each case.

`COc1cc(OC)c(/C=C/S(=O)(=O)Nc2ccc(Cl)nc2)c(OC)c1`: the GI50 in [1] worked out at 5640 nM; in data set [2], 2600 nM.

For `COc1cc(OC)c(/C=C/S(=O)(=O)Nc2ccc(Cl)cc2)c(OC)c1`, the GI50 in data set [1] and in data set [2] was greater than 10000 nM in each case.

Turning to `COc1cc(OC)c(/C=C/S(=O)(=O)Cc2ccc(OC)c(NCC(=O)[O-])c2)c(OC)c1.[Na+]` [RIGOSERTIB SODIUM], the Activity came to 91.82% in data set [5]; 48% in data set [7]; 30% in data set [8]; 27.41% in [9]; 5.16% in [11]; 0.25% in [13]. In addition, the Activity is 5% in data set [14]; 2.25% in data set [15]; 28% in data set [16]; 20% in data set [20]; 33% in [22]; 0.29% in [23]. The Activity worked out at 19% in data set [25], 69.9% in data set [26], 17% in data set [32] and 2.75% in [34]. The GI50 in [1] stood at 60 nM; in [2], 40 nM. The inhibition entry in [35] was “Active”. For the same compound, the outcome in [36] and in [37] was Active.

Take `COc1cc(OC)c(/C=C/S(=O)(=O)Cc2nc(N)ncc2OC)c(OC)c1`: the GI50 in [1] and in data set [2] was greater than 10000 nM in each case.

Consider `COc1ccc(NS(=O)(=O)/C=C/c2c(OC)cc(OC)cc2OC)cc1`, for which the GI50 in [1] and in data set [2] was 10 nM in each case.

For `COc1cc(OC)c(/C=C/S(=O)(=O)Cc2cnc(OC)c(OC)c2)c(OC)c1`, the GI50 in data set [1] stood at 2810 nM; in [2] it was 930 nM.

Turning to `CNc1ncc(OC)c(CS(=O)(=O)/C=C/c2c(OC)cc(OC)cc2OC)n1`, the GI50 in [1] was greater than 10000 nM; in data set [2], 7540 nM.

For `COc1cc(OC)c(/C=C/S(=O)(=O)Nc2ccc(OC)nc2)c(OC)c1`, the GI50 came to 1000 nM in data set [1] and 380 nM in [2].

Regarding `CCOc1cc(OC)cc(OC)c1/C=C/S(=O)(=O)Nc1ccc(OC)nc1`, the GI50 in data set [1] worked out at 420 nM; in [2], 470 nM.

Turning to `COc1cc(OC)c(/C=C/S(=O)(=O)Nc2cnc(Cl)cn2)c(OC)c1`, the GI50 in data set [1] and in data set [2] was greater than 10000 nM each time.

As a reminder, the GI50 is the concentration at which growth is held to half of that of the control.

Values taken from ChEMBL document CHEMBL3867470, “Synthesis and biological evaluation of heteroaryl styryl sulfone derivatives as anticancer agents” (Bioorg Med Chem Lett, 2016).
